Tests used:
[1] = test system: Rat rIgA (poly-rIgA); experiment: SEC determination of poly- and mono-rIgA content of rat rIgA after treatment; type: biochemical; conditions: 1 h 37° C., PBS, SEC AUC
Procedure: The overall complex size of IgA aggregates was determined either by size-exclusion chromatography (SEC: Superdex 200 Increase 10/300 by GL Cytiva), or by SDS-PAGE. For evaluating the involvement of intermolecular disulfide connectivity in IgA complexes, IgA samples were treated with either reducing agents, such as DTT, TCEP or reduced glutathione (Sigma), or interventional drugs, such as cysteamine (Sigma), WR-1065 (Sigma) and N-Acetyl-L-cysteine (VWR Chemicals) in phosphate-buffered saline (PBS) pH7.4. Before running on SEC, samples were treated with the drugs at indicated concentrations at 37° C. for one hour.
In the meantime, the SEC column was also equilibrated with PBS supplemented with the reducing agent at the same concentration. For running SEC, 100 μL of the recombinant IgA (concentration varies between 1 mg/mL and 8 mg/mL) or purified native human IgA1 (˜1 mg/mL) was loaded to the column and UV absorption was recorded following elution. […] The ratios between poly-rIgA and mono-rIgA were calculated as between the corresponding areas under the curve (AUC), and the treatment effect of the thiol agents was judged by the reduction of the poly-rIgA level with a compensatory increase of the mono-rIgA content.
To further investigate specific cysteine residue(s) involved in IgA complexes, expression vectors were constructed to produce recombinant IgA (rIgA) Fc segments of rat and human sequences (FIG. 2, part A) as discussed above. Rat IgA analogs were expressed in BL21 DE3 strain of E. coil and recombinant protein were purified from the bacterial lysate using Histrap HP columns (GE Healthcare) by running fast protein liquid chromatography (FPLC). Human recombinant IgA mimetics were produced from human embryo kidney (HEK293) cells by transfection of the expressing plasmids. Recombinant IgA proteins expressed by the cells were secreted into the culture medium, and they were subsequently purified by Histrap HP columns by FPLC using standard procedures. […] Rat rIgA was produced from bacterial expression as discussed above.
Cysteamine (Cy), an aminothiol that can react with cysteine, is both a natural metabolite produced in mammalian cells and a clinical drug used for treatment of cystinosis. In cystinosis, cysteamine reduces the disulfide bond in cystine, which is the oxidated dimer of amino acid cysteine (FIG. 4, part A). In the context of cysteine residues in proteins, endogenous cysteamine as well as the therapeutic drug forms mixed disulfides with susceptible cysteine sulfhydryl groups in a process called cysteamination (FIG. 4, part B). It was sought to determine whether cysteamine could reduce Cys471-disulfides to disaggregate poly-IgA. Rat rIgA (SEQ ID NO.4) was treated with various concentrations of cysteamine for one hour at 37° C. in phosphate buffered saline at neutral pH and the protein complexes were analyzed by SEC. The SEC column (model: Superdex 200 Increase 10/300 GL by Cytiva) was preequilibrated with the same buffer supplemented with the same concentration of cysteamine.

[2] = test system: glomerular human IgA1 deposition; experiment: Passive mouse model of IgA deposition (human IgA1 injection), glomerular immunofluorescence and blood IgA1; type: in vivo, BALB/c mice; conditions: mice, 200 mg/kg s.c. 2 h before human IgA1 injection, n=6; buffer 2293±163
Procedure: To establish the passive rat model, 5 mg/kg.BW recombinant rat rIgA, which contained a fraction of poly-rIgA, were i.v. injected daily to six 14-weeks old male Wistar rats (Charles River Labs, USA) for 5 consecutive days. Every day, three rats in each group had received a subcutaneous dose of either 250 mg/kg cysteamine, or buffer control, two hours before the rIgA injection. Twenty-four hours after the last injection of rIgA, kidneys were collected for immunofluorescence detection of deposits with goat-anti-rat IgA antibody (Cat: STAR111, Biorad laboratory). Similarly, a passive IgA nephrophathy mouse model was established by injecting 35 mg/kg purified human IgA1 in BALB/c mice (Charles River Labs). Two hours before IgA1 injection, six mice in each experimental group had each received a pretreatment dose of either 200 mg/kg cysteamine, or PBS, via subcutaneous injection. Two and a half hours after human IgA1 injection, kidneys were harvested, and specimens were stained with FITC-conjugated anti-human IgA antibody (Cat: 2050-02, SouthernBiotech). Plasma samples were collected at 0.5 h, 1 h and 2 h after IgA1 injection of all mice.
Frozen tissues were sectioned at 4 μm for IgA detection using goat anti-rat IgA (Cat: STAR111, Bio-Rad Laboratories) at 1:100, or anti-human IgA antibody (Cat: 2050-02, […]) at 1:80 dilution. […]

Q: `NCCS` [cysteamine] was tested. Which “Mono-IgA (%)” value ([1]; cysteamine 0.1 mM) did it give?
A: 81.85%

Q: And the “Poly-IgA (%)” value ([1]; cysteamine 0.1 mM)?
A: 18.15%

Q: What about the “Mono-IgA (%)” value ([1]; cysteamine 1 mM) of the same compound?
A: 89.57%

Q: And the “Poly-IgA (%)” value ([1]; cysteamine 1 mM)?
A: 10.43%

Q: And the “Mono-IgA (%)” value ([1]; cysteamine 5 mM)?
A: 93.59%

Q: And the “Poly-IgA (%)” value ([1]; cysteamine 5 mM)?
A: 6.414%

Q: And the “Mono-IgA (%)” value ([1]; cysteamine 10 mM)?
A: 93.24%

Q: And the “Poly-IgA (%)” value ([1]; cysteamine 10 mM)?
A: 6.759%

Q: What about the “glomerular IgA1 intensity (Mean±SEM)” value [2] of the same compound?
A: 870±193

Source: patent US12263144B2, “Methods of treating IgA nephropathy with thiol-containing molecules” (Accubit LLC—Biotechnology, priority 2020, dated 2025)
